According to US20140314904A1, “PRE-SLAUGHTER DIET INCLUDING METHIONINE” (ADISSEO FRANCE S.A.S., priority 2011, published 2014):

Columns and labels:
Format in all cases: in vivo, pig
[1] = system: L. dorsi muscle of the pigs; experiment: sEMG peak-to-peak amplitude of L. dorsi muscle; conditions: 1 weeks dietary supplementation
From the text: This study used both a single and a double differential electrode configuration, with electrodes ([…] & […]; Blue Sensor, Medicotest […], Denmark) configured as described previously by Harrison et al. (Harrison, […]. Molsted, & E. M. Bartels. The uremic environment and muscle dysfunction in man and rat. Nephron. Vol 103: 33-42, 2006). Surface electromyography recordings were taken via an ML 132 amplifier connected to a ML780 PowerLab/[…] converter (AD Instruments, Chalgrove, Oxfordshire, UK) with a further connection to a MacBook Air with Chart v. 3.6.3/s Software, Peak Parameters and Spike Histogram extensions. […] Sampling speed was set to 40,000 per second. Differential recordings of sEMG signals were made via surface electrodes from the L. dorsi muscle as previously described by Andersen et al. (2008, Andersen […], Guy J H, Edwards S A & Harrison A P, Postnatal changes in electromyographic signals during piglet growth, and in relation to muscle fibre types. […] In brief, a bipolar differential electrode configuration, with disposable Ag-AgCl recording electromyography electrodes was attached to the exposed skin surface above the L. dorsi muscle, with a set inter-electrode distance of 16-19 mm (Andersen et al., 2008). […] The recorded sEMG signal was assessed in terms of peak-to-peak amplitude (mV) using Chart analysis software (AD Instruments, Chalgrove, Oxfordshire, UK).

[2] = system: slaughter pigs; experiment: Instrumental meat colour (CIE L*a*b*), Example 1; conditions: LS mean ± SEM
From the text: Twenty-one slaughter pigs ([Yorkshire×Swedish Landrace]×Hampshire) were raised on a commercial diet. Pigs were randomly assigned to one of three groups (n=7). The groups represented three feeding strategies, namely a Control group which received a standardized diet comprising 0.27% total methionine, and both a DLM and HMTBA group, receiving the same diet as the Control group throughout the feeding period, apart from the fact that they were fed a higher level of methionine (1.1% total methionine) during a seven day finishing period immediately prior to slaughter. The supplements were given in two forms, either as D L-methionine (DLM) or DL-2-hydroxy-4-methylthiobutanoic acid (HMTBA).
Pork chops were cut perpendicular to the long axis of each LD muscle. Six 3 cm thick pork chops was sliced from each LD. Three were vacuum packed and three were packed in a high-oxygen modified atmosphere. The chops were placed in plastic trays (M71-43A white/PS; 195×144×43 mm in dimension; Frch Plast, Denmark) and placed in vacuum bags (EM-628862; O2 transmission rate=40-50 cm^3/m^2/24 h/bar, CO2 transmission rate=150 cm^3/m^2/24 h/bar, water-vapour transmission rate=2.6 g/m^2/24 h; LogiCon Nordic A/S, Denmark). The ambient air was removed from all vacuum bags using a vacuum machine (type, manufacturer, country). The bags intended for […] were first filled with a gas mixture (80% oxygen/20% carbon dioxide) before being sealed completely, whereas the bags intended for MAP were only partially sealed. […] (until 9 days post mortem). The gas composition was checked (CheckMate 9900, PBI Dansensor, Denmark) before packaging and again prior to opening, at the end of the simulated display period in order to check for leakage. The oxygen-enriched environment was well maintained (83.4%) throughout the display period for all MA packages.
Instrumental meat colour was measured with a Minolta Chroma Meter (CR-300; D65 and 2° observer angle, 8 mm diameter measuring area; Minolta, Japan). Before packaging, as described previously, colour recordings of the pork chops was carried out. At the end of the display period, the pork chops were allowed to bloom for at least 30 min at 4±2° C. once they had been removed from the vacuum bags. Colour measurements followed the CIE colour convention, where the three fundamental outputs are L*, a* and b*. L* is lightness on a scale of 0 (all light absorbed; black) to 100 (all light reflected; white); a* spans from +60 (red) to −60 (green) and b* spans from +60 (yellow) to −60 (blue). The saturation index, also known as chroma, was calculated as the square root of a*^2+b*^2 (MacDougall, 1977). Three recordings were made on each pork chop, and the mean value was used for statistical analysis.

[3] = system: pigs; experiment: Post mortem pH and temperature in M. longissimus dorsi, Example 2
Procedure: The pigs were slaughtered at a commercial slaughter house in Sweden after a resting time of 5 h. At 45 minutes post mortem, pH (Knick portamess 751) and temperature (digital thermometer, Weber) were measured in the M. longissiumus dorsi at the level of the 10th rib. At 48 h post mortem, the entire loins were dissected from the carcasses and transported to the University of Copenhagen for further measurements. Ultimate pH was measured, as well as colour by Minolta L*a*b*. Dry matter content was determined by drying muscle samples at 105° C. for 24 h. Slices of 3 cm thickness were cut, measured and vacuum packed before being stored for a further 7 days at 2° C. At the end of the storage period samples were heated to an internal temperature of 75° C. After being cooled down, samples were stored cold at 2° C. until they were cut into slabs of 1 cm×1 cm×2.5 cm size for shear force measurement. For each animal, 8 specimens were measured and the mean maximum load was used for further analysis.

[4] = Initial (2 days post mortem), square root of a*^2+b*^2
[5] = MAP 80% O2/20% CO2 (9 days post mortem)
[6] = Slaughter house, 45 min post mortem

| Compound | Change in sEMG peak-to-peak amplitude between pre and post groups ([1]; 60, 150, 200 Hz) | Light reflection (L*) ([2]; Initial (2 days post mortem)) | Redness (a*) ([2]; Initial (2 days post mortem)) | Yellowness (b*) ([2]; Initial (2 days post mortem)) | Saturation index [2, 4] | Redness (a*) [2, 5] | Saturation index [2, 5] | Yellowness (b*) [2, 5] | pH ([3]; Laboratory, 2 days post mortem) | Temperature [3, 6] | pH [3, 6] | Improvement in muscle growth/performance (sEMG peak-to-peak amplitude) cf CONT (untreated) levels [1] |
| --- | --- | --- | --- | --- | --- | --- | --- | --- | --- | --- | --- | --- |
| CSCCC(N)C(=O)O (racemic) [DLM, DL-methionine] | clear improvement | 55.75 ± 1.25 ^B | 6.69 ± 0.58 ^C, D | 2.92 ± 0.46 ^C | 7.33 ± 0.67 ^E | 7.83 ± 0.59 ^A, B, C, D | 10.55 ± 0.69 ^A, B, C, D | 7.10 ± 0.49 ^A, B | 5.50 | 39 °C | 6.10 |  |
| CSCCC(O)C(=O)O (racemic) [HMTBA, 2-hydroxy-4-(methylthio) butanoic acid] |  | 56.89 ± 1.25 ^A, B | 7.58 ± 0.58 ^B, D | 3.71 ± 0.46 ^C | 8.46 ± 0.67 ^C, D, E | 7.43 ± 0.59 ^B, D | 9.81 ± 0.69 ^B, C, D, E | 6.35 ± 0.49 ^B | 5.40 | 39 °C | 6.20 | ~100% |
